{
  "source": "ChEMBL document CHEMBL1201862",
  "about": "“PubChem BioAssay data set” (2004)",
  "key": {"[1]": {"biological_target": "Tyrosyl-DNA phosphodiesterase 2 (Homo sapiens, UniProt O95551)", "experiment": "human TDP2 enzyme inhibitors, dose response, biochemical, epi absorbance, IC50 (AID 743297)"}, "Caspase-3": {"biological_target": "T1, Caspase-3 (Homo sapiens, UniProt P42574)", "T1 sequence (P42574 whole entry)": "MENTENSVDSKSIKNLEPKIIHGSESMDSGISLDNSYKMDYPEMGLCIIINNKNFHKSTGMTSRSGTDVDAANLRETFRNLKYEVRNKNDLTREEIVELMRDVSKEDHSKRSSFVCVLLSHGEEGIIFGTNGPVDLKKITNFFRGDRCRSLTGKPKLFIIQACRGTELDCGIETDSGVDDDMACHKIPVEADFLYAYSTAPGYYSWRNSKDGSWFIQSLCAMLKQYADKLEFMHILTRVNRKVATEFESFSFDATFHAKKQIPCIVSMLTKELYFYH", "format": "functional"}, "[2]": {"biological_target": "Glutathione-S-transferase (Schistosoma japonicum, UniProt Q26513)", "sequence (Q26513 whole entry)": "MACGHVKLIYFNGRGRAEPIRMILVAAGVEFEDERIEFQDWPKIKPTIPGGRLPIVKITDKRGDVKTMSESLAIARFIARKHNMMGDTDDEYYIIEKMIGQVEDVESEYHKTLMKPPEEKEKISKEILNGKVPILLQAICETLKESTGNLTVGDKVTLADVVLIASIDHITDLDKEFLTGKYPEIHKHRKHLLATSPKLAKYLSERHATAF", "experiment": "biotin-GST/anti-GST TR-FRET signal inhibitors, dose response, artefact control for Vif-APOBEC3G degradation inhibitor project, biochemical (AID 1117362)", "format": "functional"}, "[3]": {"biological_target": "T2, Endoribonuclease toxin MazF (Escherichia coli K-12, UniProt P0AE70)", "T2 sequence (P0AE70 whole entry)": "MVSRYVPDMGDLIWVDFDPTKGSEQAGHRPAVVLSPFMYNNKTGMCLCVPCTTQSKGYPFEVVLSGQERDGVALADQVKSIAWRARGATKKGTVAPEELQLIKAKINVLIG", "experiment": "SAR analysis of small molecule activators of the MazEF TA System via a fluorescence-based single-stranded RNase assay counterscreen. [Related pubchem assays (depositor defined):AID504720, AID504743]", "format": "functional"}, "[4]": {"biological_target": "T2, Endoribonuclease toxin MazF", "experiment": "MazF endoribonuclease activators, SAR follow-up, biochemical, fluorescence, single-stranded RNA substrate (AID 588603)", "format": "functional"}, "Vero": {"tested_on": "Vero", "experiment": "Vero cell cytotoxicity, cytotoxicity control for flavivirus capping enzyme inhibitors (AID 588742)", "format": "functional", "details": "Chlorocebus sabaeus"}, "MEF": {"tested_on": "MEF", "experiment": "SAR analysis of small molecule cytotoxicity of MazEF TA System activators in embryonic fibroblast (MEF) cells. [Related pubchem assays (depositor defined):AID504720, AID504743]", "format": "functional", "details": "Mus musculus"}, "[5]": {"biological_target": "T2, Endoribonuclease toxin MazF", "experiment": "MazF toxin RNase activators, dose response, biochemical, fluorescence, single-stranded RNA substrate, uHTS hits (AID 588481)", "format": "functional"}, "[6]": {"biological_target": "T3, Tyrosine-protein phosphatase non-receptor type 22 (Homo sapiens, UniProt Q9Y2R2)", "T3 sequence (Q9Y2R2 whole entry)": "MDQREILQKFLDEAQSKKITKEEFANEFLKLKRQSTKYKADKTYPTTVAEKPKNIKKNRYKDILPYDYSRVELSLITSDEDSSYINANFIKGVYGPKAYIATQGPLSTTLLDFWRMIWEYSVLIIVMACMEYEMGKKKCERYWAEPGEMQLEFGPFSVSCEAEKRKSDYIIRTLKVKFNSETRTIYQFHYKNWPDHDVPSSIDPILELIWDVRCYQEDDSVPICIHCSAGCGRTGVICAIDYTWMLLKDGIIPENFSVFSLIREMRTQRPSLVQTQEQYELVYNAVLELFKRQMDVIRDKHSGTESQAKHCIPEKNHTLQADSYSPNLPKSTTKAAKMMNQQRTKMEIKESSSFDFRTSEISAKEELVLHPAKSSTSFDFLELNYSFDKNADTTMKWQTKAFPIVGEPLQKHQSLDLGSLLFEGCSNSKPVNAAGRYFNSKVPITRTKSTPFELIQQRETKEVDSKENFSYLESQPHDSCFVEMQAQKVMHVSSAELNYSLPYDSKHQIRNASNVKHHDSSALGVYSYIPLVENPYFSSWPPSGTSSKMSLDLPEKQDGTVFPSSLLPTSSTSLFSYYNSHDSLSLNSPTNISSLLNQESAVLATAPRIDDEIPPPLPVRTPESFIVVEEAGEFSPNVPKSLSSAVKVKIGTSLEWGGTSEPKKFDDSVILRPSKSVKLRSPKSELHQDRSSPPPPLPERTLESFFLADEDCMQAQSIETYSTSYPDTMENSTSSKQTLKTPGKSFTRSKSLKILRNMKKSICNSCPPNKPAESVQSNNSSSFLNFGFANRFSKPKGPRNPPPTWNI", "format": "functional"}, "[7]": {"experiment": "growth suppression of beta-catenin-knockout colon cells, dose response, cell-based, HCT116, human colon tumor (AID 1045);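 note: HCT116 colon tumor cells with beta catenin knocked out; cells exposed to compound for 60 hours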", "format": "functional"}, "[8]": {"biological_target": "Ras and Rab interactor 1/Tyrosine-protein kinase ABL1 (Homo sapiens, UniProt P00519+Q13671)", "sequence (P00519 whole entry)": "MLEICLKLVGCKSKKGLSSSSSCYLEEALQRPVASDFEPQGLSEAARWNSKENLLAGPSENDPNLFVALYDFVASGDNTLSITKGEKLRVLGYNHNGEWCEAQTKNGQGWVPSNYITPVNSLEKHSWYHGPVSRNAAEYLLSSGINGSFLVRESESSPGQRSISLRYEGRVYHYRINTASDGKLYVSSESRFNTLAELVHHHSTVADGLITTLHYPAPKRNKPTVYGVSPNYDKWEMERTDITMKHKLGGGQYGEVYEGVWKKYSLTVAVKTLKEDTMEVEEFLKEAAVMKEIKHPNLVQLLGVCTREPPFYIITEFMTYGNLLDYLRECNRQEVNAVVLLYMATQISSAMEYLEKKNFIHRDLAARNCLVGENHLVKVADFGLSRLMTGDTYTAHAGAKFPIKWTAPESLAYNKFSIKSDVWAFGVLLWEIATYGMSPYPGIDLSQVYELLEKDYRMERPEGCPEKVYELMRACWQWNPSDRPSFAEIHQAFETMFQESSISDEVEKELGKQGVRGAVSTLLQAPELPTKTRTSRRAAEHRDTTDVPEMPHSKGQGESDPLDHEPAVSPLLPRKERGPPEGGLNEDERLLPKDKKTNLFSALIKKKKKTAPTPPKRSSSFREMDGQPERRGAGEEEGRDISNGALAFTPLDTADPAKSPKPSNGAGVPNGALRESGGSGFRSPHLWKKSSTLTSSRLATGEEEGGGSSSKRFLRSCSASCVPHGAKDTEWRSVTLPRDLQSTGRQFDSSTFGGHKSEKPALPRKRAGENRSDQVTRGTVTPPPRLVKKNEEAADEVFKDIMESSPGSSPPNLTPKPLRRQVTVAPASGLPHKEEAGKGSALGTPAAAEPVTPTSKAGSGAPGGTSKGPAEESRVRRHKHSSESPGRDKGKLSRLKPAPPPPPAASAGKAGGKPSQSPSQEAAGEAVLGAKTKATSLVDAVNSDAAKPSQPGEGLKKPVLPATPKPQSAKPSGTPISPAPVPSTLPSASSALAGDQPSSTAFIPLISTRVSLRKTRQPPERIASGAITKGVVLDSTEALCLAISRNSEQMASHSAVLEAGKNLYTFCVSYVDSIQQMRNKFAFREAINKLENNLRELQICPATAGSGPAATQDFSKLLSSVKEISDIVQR", "sequence (Q13671 whole entry)": "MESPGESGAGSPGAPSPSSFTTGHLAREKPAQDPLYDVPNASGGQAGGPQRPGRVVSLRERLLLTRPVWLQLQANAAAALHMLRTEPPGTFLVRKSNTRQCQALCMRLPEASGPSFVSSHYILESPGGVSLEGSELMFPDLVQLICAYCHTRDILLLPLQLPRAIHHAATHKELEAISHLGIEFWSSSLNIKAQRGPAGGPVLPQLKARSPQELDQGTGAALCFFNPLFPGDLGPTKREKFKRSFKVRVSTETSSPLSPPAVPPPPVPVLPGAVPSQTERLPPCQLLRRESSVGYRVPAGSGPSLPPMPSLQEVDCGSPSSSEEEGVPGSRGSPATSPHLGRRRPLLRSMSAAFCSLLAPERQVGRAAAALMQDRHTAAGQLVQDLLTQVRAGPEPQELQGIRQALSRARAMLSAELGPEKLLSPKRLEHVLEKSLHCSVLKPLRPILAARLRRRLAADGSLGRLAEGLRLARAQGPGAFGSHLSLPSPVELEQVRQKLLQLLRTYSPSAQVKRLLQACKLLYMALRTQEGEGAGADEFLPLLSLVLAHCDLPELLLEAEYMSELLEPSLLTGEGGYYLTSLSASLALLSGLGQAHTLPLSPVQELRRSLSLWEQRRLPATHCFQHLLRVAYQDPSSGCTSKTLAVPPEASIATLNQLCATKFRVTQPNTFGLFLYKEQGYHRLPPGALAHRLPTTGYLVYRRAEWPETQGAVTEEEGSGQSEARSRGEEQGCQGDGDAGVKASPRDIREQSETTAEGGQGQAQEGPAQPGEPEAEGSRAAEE", "format": "functional"}, "[9]": {"experiment": "cytotoxicity toward DRD oncogenic fibroblasts, dose response, cell-based, non-viral oncogenic, luminescence (AID 1934)", "format": "functional", "details": "Homo sapiens"}, "BJ": {"tested_on": "BJ", "experiment": "cytotoxicity toward BJ-TERT fibroblasts, dose response, cell-based, RAS-independent, luminescence (AID 1933)", "format": "functional", "details": "Homo sapiens"}, "[10]": {"biological_target": "Transitional endoplasmic reticulum ATPase (Homo sapiens, UniProt P55072, C522A)", "sequence (P55072 2-806 C522A limits assumed)": "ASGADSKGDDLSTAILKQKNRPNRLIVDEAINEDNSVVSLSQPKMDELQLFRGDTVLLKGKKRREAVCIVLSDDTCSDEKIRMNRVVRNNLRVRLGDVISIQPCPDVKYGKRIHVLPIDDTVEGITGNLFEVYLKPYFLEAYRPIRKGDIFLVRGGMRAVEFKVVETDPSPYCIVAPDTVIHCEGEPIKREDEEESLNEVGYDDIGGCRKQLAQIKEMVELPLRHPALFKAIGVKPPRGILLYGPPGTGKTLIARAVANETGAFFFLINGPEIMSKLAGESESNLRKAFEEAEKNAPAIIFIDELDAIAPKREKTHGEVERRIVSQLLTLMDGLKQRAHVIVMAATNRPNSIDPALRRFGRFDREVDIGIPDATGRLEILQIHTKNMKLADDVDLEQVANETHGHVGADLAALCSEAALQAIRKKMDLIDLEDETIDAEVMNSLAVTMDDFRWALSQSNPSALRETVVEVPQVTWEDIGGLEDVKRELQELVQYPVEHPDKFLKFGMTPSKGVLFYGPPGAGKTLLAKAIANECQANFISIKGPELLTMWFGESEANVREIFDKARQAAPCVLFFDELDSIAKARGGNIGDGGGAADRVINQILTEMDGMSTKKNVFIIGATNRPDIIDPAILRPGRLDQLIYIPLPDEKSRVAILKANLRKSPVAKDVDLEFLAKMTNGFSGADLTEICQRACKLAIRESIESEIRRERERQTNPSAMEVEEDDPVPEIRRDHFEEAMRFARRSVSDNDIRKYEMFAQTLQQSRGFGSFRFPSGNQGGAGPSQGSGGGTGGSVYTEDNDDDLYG", "experiment": "C522A mutant p97 ATPase inhibitors, dose response, counter-screen for p97 inhibitor project, biochemical, luminescence (AID 1544)"}, "[11]": {"biological_target": "T4, Mannose-6-phosphate isomerase (Homo sapiens, UniProt P34949)", "T4 sequence (P34949 whole entry)": "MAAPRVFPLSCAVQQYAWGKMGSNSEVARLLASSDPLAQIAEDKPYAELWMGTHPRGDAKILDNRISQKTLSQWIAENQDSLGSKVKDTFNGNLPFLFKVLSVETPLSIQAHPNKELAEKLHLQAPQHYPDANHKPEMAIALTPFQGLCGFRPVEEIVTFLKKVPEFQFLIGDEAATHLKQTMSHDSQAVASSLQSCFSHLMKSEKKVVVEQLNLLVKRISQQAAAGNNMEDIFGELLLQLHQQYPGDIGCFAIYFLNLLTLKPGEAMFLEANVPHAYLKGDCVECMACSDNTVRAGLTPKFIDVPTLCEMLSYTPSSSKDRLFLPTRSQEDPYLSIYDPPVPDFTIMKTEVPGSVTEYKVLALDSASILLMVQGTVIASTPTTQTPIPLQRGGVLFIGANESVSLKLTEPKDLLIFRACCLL", "experiment": "human PMI inhibitors, high substrate, primary screen, biochemical, fluorescence intensity, high mannose 6-phosphate (AID 1220)"}, "cells": {"experiment": "cells", "format": "functional"}, "Large T antigen": {"biological_target": "Large T antigen (Simian virus 40, UniProt P03070)", "sequence (P03070 whole entry)": "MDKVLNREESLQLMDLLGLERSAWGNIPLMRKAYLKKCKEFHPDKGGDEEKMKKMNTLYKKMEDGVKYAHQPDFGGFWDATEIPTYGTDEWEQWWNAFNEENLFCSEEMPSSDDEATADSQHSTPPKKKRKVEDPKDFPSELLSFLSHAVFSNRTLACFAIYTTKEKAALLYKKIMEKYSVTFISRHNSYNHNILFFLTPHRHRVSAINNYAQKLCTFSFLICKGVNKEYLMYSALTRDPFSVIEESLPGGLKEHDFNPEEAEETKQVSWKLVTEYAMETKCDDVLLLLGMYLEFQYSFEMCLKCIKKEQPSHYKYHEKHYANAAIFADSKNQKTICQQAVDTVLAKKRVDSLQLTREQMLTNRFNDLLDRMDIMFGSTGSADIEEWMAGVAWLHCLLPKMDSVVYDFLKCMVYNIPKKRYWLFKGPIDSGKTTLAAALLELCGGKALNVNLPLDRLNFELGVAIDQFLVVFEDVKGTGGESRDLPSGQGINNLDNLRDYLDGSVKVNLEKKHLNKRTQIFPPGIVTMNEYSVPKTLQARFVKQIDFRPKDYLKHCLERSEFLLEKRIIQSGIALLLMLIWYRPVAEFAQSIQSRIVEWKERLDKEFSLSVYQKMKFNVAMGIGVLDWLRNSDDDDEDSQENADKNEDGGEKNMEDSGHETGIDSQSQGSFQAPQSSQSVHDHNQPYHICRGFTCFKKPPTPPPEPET", "format": "functional, Betapolyomavirus macacae"}, "ORF 73": {"biological_target": "ORF 73 (Human herpesvirus 8, UniProt O40947)", "sequence (O40947 whole entry)": "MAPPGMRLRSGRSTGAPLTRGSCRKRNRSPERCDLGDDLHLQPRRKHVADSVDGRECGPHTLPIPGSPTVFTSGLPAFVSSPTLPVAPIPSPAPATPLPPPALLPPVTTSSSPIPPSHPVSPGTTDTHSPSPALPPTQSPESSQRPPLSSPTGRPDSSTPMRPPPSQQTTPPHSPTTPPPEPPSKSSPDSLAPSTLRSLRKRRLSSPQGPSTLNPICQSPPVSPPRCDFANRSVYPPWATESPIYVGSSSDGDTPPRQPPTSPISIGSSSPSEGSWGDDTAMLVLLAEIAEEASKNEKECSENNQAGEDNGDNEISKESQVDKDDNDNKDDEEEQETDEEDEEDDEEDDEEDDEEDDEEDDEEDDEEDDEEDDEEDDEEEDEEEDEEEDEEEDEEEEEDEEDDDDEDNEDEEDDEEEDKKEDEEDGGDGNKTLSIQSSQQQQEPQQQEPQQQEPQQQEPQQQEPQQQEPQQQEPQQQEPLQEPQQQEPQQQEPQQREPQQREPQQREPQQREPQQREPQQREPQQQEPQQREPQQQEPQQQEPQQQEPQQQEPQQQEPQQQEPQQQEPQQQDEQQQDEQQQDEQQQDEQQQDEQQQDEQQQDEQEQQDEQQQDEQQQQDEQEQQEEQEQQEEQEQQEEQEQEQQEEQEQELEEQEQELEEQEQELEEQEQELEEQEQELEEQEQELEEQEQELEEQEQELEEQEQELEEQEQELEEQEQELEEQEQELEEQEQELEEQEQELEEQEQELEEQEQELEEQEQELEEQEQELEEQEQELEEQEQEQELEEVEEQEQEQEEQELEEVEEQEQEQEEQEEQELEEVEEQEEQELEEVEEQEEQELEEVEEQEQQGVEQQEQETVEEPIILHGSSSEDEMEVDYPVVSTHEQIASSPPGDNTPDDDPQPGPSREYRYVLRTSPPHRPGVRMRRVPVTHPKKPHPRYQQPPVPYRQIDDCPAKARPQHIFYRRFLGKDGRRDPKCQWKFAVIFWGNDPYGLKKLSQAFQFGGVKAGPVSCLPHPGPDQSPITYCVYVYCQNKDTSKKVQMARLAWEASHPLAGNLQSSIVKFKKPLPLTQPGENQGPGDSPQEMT", "experiment": "inhibitors of C-LANA binding to LBS DNA, dose response, biochemical, fluorescence polarization, cherry-picked samples (AID 504725);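 note: fluorescence polarization of a labeled DNA duplex reporting LANA DNA binding; potency is for inhibitors that block LANA binding to the DNA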", "set-up": "species or system Human gammaherpesvirus 8"}},
  "note": "Calls of active or inactive are those of the source.",
  "data": [
    {"compound": "Oc1nc(Nc2ccccc2Cl)cc2ccccc12", "values": [
      {"measurement": "IC50", "setting": "[1]", "result": "28.4 µM (inactive)"},
      {"measurement": "IC50", "setting": "Caspase-3", "result": "4.42 µM (active)"}
    ]},
    {"compound": "O=C1C=C(c2c(O)ccc3ccccc23)c2ccccc2C1=O", "values": [
      {"measurement": "IC50", "setting": "[2]", "result": "> 100 µM (active)"},
      {"measurement": "EC50", "setting": "[3]", "result": "> 99 µM (inactive)"},
      {"measurement": "EC50", "setting": "[4]", "result": "> 99 µM (inactive)"},
      {"measurement": "CC50", "setting": "Vero", "result": "22.1 µM (active)"},
      {"measurement": "CC50", "setting": "MEF", "result": "3.84 µM (active)"},
      {"measurement": "EC50", "setting": "[5]", "result": "7.31 µM (active)"}
    ]},
    {"compound": "Cc1nc2c(=O)n(C)c(=O)nc-2n(C)n1", "values": [
      {"measurement": "IC50", "setting": "[6]", "result": "< 1.24 µM (active)"},
      {"measurement": "EC50", "setting": "[7]", "result": "0.781 µM (active)"},
      {"measurement": "IC50", "setting": "[8]", "result": "0.302 µM (active)"},
      {"measurement": "EC50", "setting": "[9]", "result": "4.39 µM (active)"},
      {"measurement": "EC50", "setting": "BJ", "result": "4.56 µM (active)"},
      {"measurement": "IC50", "setting": "[10]", "result": "> 50 µM (not active)"},
      {"measurement": "IC50", "setting": "[11]", "result": "6.09 µM (active)"},
      {"measurement": "IC50", "setting": "cells", "result": "2.27 µM (active)"}
    ]},
    {"compound": "O=C(CCN1C(=O)/C(=C\\c2ccco2)SC1=S)Nc1ccc(C(=O)O)c(O)c1", "values": [
      {"measurement": "IC50", "setting": "Large T antigen", "result": "> 100 µM (active)"},
      {"measurement": "AC50", "setting": "ORF 73", "result": "94.6 µM (active)"}
    ]}
  ]
}
